{
  "source": "paper PMC7614683",
  "about": "“A small molecule PI3Kα activator for cardioprotection and neuroregeneration” (Nature, 2023)",
  "assay_type_in_all_cases": "biochemical",
  "key": {"[1]": {"target": "protein kinases of the Z-LYTE panel (Homo sapiens, UniProt P00533, L858R/T790M)", "sequence (P00533 25-1210 T790M/L858R)": "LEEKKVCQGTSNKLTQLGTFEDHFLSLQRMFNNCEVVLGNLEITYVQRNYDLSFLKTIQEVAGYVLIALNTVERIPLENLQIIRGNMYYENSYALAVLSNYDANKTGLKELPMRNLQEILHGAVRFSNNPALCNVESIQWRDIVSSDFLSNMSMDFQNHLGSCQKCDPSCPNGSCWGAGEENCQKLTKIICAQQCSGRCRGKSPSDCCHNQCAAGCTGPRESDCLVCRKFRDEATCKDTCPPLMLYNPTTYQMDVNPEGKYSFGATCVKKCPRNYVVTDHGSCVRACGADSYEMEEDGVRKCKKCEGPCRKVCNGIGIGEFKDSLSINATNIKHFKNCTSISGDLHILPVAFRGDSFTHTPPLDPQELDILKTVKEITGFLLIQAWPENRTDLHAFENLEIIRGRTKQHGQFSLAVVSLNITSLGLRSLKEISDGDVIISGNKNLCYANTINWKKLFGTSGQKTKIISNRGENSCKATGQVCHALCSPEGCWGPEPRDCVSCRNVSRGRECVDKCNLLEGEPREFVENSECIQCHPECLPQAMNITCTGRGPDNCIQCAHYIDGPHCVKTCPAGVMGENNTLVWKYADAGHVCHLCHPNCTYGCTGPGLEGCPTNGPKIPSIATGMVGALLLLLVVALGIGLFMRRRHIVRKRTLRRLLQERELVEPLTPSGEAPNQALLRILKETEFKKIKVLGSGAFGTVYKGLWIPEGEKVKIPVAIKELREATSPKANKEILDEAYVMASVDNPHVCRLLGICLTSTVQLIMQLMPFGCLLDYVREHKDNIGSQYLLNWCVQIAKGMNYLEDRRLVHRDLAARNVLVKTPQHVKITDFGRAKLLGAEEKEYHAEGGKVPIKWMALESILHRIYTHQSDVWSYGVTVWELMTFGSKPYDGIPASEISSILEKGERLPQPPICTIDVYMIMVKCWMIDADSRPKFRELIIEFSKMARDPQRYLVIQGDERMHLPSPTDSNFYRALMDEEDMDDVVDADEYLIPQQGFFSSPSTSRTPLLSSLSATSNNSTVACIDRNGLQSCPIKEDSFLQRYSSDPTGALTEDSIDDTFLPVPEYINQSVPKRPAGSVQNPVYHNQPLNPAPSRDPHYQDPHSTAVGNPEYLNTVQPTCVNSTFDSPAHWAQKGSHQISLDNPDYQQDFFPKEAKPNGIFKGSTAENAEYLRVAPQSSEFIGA", "experiment": "SelectScreen Z-LYTE kinase activity assay (SI Table 6)", "experimental": "(§1) 133 protein kinases and 7 lipid kinases were counterscreened, with 1938 used at 1 μM, using the Adapta, Lantha and Z-LYTE assays (SelectScreen Kinase Profiling Service; Thermofisher – experimental details of these assays can be found here: https://www.thermofisher.com/uk/en/home/industrial/pharma-biopharma/drug-discovery-development/target-and-lead-identification-and-validation/kinasebiology/kinase-activity-assays.html. The tree represention in KinMap[59] generated courtesy of Cell Signaling Technology, Inc. (www.cellsignal.com). mTORC1 (mTOR/RAPTOR/LST8) protein complex and ATM kinase and substrates were produced as previously described[57],[60]. Screening of 1938 was conducted using SuperSep Phos-Tag 50 μmol/l 100 x 100 x 6.6 mm 17-well (192-18001/199-18011) gels. For ATM assays, 100 nM ATM was incubated for 30 min at 30°C with 5 μM GST-p53 and 1 mM ATP, in the absence or presence of 200 μM 1938 in ATM Kinase Buffer (50 mM HEPES pH 7.5, 100 mM NaCl, 10% glycerol, 2 mM […], 5 mM MgCl2). As a positive control for ATM activation, the same reaction was carried out with 100 nM ATM/5 μM GST-p53/1 mM ATP in the presence of 100 nM Mre11-Rad50-Nbs1 (MRN) complex, a known activator of ATM[61]. For mTORC1 assays, 50 nM mTORC1 complex (mTOR/LST8/RAPTOR) was incubated for 3 h at 30°C with 15 μM 4E-BP1, 10 mM MgCl2 and 250 μM ATP, in the absence or presence of 200 μM 1938. As a ‘positive’ control, a higher concentration (150 nM) of mTORC1 complex (mTOR/LST8/RAPTOR) was incubated for 3 h at 30°C with 15 μM 4E-BP1, 10 mM MgCl2 and 250 μM ATP. Kinase reactions were quenched by addition of SDS-PAGE Loading Buffer (as per manufacturer’s instructions) and freezing at -20°C before being run on the Phos-tag gels at 150 V for 90 min. Gels were then stained using InstantBlue™ Coomassie, and quantified using BioRad Image Lab Software. Kinase assays were carried out in triplicate."}, "[2]": {"target": "protein kinases of the Z-LYTE panel (Homo sapiens, UniProt P07949, V804L)", "sequence (P07949 29-1114 V804L)": "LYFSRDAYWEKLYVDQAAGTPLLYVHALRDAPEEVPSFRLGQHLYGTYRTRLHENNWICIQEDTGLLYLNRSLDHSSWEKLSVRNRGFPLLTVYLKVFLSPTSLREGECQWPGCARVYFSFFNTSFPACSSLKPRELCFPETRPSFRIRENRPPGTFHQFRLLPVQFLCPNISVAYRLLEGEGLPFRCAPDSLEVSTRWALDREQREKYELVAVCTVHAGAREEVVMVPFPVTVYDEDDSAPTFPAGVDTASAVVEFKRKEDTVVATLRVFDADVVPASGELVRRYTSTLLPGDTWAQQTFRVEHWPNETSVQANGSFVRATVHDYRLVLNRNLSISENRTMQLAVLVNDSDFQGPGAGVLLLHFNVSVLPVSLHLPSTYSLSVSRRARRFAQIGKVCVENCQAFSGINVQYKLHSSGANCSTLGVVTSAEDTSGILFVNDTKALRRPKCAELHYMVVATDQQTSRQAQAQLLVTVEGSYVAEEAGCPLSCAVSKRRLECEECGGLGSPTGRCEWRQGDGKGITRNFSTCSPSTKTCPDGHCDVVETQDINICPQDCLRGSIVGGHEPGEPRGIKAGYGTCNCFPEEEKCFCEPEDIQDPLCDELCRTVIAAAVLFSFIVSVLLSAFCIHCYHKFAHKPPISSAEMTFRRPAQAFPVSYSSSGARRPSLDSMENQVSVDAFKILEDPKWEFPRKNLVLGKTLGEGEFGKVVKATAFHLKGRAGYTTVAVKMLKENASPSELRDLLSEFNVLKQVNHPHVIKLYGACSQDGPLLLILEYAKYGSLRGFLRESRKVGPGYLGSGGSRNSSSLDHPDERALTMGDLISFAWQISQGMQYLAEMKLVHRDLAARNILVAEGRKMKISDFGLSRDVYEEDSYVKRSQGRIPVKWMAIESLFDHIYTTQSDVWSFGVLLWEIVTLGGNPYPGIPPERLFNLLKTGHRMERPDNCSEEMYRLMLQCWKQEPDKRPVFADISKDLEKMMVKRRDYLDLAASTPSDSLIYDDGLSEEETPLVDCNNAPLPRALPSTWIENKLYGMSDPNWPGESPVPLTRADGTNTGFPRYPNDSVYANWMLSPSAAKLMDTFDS", "experiment": "SelectScreen Z-LYTE kinase activity assay (SI Table 6)", "experimental": "as §1"}, "[3]": {"target": "protein kinases of the Z-LYTE panel (Homo sapiens, UniProt Q04912)", "experiment": "SelectScreen Z-LYTE kinase activity assay (SI Table 6)", "experimental": "as §1"}, "[4]": {"target": "protein kinases of the Z-LYTE panel (Homo sapiens, UniProt P17948)", "experiment": "SelectScreen Z-LYTE kinase activity assay (SI Table 6)", "experimental": "as §1"}, "[5]": {"target": "protein kinases of the Z-LYTE panel (Homo sapiens, UniProt P04049, Y340D/Y341D)", "sequence (P04049 whole entry Y340D/Y341D)": "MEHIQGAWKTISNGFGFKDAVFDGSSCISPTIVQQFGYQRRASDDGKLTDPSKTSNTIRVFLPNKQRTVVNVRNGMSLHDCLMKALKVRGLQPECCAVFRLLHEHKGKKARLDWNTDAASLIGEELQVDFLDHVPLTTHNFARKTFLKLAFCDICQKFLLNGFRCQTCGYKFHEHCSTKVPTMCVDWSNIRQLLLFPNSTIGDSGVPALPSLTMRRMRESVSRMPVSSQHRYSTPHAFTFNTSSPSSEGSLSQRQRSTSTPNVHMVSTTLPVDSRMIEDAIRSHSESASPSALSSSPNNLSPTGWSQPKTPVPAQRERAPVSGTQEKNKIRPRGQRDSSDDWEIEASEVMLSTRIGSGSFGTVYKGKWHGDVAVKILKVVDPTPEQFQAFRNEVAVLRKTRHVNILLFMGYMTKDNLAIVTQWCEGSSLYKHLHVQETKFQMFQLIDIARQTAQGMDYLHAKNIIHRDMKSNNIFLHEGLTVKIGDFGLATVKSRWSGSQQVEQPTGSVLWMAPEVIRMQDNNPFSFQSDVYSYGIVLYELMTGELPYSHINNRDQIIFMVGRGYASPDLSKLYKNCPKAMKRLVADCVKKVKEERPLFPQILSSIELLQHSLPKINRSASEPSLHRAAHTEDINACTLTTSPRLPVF", "experiment": "SelectScreen Z-LYTE kinase activity assay (SI Table 6)", "conditions": "RAF1 (cRAF) Y340D Y341D, 1000 nM, [ATP] 100 μM", "experimental": "as §1"}, "[6]": {"target": "T1, protein kinases of the Z-LYTE panel (Homo sapiens, UniProt P52333)", "T1 sequence (P52333 1-1124)": "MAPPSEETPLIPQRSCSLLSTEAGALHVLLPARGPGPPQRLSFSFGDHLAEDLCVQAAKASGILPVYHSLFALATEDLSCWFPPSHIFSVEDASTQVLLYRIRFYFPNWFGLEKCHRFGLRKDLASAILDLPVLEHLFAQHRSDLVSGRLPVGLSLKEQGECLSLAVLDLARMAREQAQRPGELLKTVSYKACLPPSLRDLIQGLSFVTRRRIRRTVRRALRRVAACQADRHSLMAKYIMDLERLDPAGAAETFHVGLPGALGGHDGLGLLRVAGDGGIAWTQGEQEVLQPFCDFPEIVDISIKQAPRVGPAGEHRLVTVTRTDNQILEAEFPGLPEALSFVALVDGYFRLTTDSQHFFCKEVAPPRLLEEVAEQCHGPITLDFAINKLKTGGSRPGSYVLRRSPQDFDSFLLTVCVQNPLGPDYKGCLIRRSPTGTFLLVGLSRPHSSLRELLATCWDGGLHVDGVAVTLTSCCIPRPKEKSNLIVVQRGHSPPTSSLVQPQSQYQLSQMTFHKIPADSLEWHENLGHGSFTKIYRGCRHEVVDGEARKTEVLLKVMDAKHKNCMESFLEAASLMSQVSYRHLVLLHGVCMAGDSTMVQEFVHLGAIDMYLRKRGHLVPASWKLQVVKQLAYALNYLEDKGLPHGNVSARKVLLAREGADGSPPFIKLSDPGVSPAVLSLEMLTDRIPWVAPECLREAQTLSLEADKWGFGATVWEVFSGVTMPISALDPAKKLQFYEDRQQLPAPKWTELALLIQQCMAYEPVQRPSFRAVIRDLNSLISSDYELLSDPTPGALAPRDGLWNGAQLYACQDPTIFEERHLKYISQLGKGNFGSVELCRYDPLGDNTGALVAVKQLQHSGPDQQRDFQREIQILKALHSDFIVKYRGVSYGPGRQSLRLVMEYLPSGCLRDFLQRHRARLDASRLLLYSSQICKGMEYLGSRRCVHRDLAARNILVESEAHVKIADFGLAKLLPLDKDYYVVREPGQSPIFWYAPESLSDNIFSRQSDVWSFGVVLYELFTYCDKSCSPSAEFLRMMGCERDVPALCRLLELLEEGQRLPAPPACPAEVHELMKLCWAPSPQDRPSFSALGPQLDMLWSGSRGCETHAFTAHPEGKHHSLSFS", "experiment": "SelectScreen Z-LYTE kinase activity assay (SI Table 6)", "experimental": "as §1"}, "[7]": {"target": "protein kinases of the Z-LYTE panel (Homo sapiens, UniProt Q13153)", "sequence (Q13153 whole entry)": "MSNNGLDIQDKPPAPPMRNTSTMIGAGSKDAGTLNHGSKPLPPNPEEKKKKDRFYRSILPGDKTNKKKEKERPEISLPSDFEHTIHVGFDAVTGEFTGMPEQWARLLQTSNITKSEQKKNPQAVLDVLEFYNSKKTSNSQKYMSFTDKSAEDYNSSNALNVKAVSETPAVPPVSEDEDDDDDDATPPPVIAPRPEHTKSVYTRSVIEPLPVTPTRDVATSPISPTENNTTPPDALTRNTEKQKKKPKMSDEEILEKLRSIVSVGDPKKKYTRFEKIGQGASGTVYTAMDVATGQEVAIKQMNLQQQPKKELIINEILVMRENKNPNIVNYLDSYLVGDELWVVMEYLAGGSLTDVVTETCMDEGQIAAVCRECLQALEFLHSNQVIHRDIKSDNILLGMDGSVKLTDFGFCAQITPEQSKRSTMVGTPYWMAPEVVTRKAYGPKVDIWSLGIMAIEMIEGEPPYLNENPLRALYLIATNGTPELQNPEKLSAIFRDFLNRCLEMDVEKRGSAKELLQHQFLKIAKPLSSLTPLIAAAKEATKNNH", "experiment": "SelectScreen Z-LYTE kinase activity assay (SI Table 6)", "experimental": "as §1"}, "[8]": {"target": "protein kinases of the Z-LYTE panel (Homo sapiens, UniProt Q06187)", "sequence (Q06187 whole entry)": "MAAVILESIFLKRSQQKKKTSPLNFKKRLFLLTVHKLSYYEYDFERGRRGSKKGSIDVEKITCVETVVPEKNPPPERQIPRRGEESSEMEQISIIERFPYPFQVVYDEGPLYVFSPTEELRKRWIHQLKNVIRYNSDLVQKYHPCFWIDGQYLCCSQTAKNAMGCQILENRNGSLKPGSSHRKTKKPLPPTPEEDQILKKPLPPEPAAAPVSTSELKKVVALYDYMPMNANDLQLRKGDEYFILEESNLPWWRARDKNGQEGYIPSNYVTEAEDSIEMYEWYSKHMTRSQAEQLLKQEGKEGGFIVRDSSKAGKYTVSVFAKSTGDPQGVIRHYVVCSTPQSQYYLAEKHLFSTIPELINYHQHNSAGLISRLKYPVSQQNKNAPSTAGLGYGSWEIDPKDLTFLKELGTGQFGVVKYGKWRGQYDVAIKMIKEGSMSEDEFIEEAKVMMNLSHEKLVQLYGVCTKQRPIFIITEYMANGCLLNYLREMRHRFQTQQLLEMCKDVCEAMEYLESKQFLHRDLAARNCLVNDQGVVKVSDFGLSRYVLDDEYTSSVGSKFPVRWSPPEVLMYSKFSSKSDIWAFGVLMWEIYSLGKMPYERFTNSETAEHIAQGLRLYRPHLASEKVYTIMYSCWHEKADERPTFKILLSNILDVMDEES", "experiment": "SelectScreen Z-LYTE kinase activity assay (SI Table 6)", "experimental": "as §1"}, "BRK": {"target": "BRK (Homo sapiens, UniProt Q13882)", "sequence (Q13882 whole entry)": "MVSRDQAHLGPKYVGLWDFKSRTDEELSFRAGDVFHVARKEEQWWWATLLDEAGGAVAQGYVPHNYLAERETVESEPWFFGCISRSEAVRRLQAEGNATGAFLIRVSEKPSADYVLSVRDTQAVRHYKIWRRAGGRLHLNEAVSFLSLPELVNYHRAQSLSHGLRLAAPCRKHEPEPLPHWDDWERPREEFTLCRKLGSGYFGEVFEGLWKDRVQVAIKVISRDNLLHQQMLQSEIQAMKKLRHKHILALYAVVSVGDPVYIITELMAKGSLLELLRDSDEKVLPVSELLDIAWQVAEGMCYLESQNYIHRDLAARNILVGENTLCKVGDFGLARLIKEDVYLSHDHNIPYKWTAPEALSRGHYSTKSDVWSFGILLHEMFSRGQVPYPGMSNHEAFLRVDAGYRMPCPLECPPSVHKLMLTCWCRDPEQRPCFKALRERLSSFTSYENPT", "experiment": "SelectScreen kinase profiling, BRK", "experimental": "as §1"}},
  "note": "Read-outs that look alike come from different tables or passages of the source.",
  "data": [
    {"smiles": "CCN1CCN(c2ccc(Nc3cc(Nc4cccc5c4N(C(C)=O)CC5)ccn3)cc2)CC1", "note": "[Compound 1938]", "values": [
      {"measurement": "inhibition at 1 µM", "setting": "[1]; read-out: % Inhibition Point 1", "result": 12, "unit": "%"},
      {"measurement": "inhibition at 1 µM", "setting": "[1]; read-out: % Inhibition Point 2", "result": 12, "unit": "%"},
      {"measurement": "inhibition at 1 µM", "setting": "[1]; read-out: % Inhibition mean", "result": 12, "unit": "%"},
      {"measurement": "inhibition at 1 µM", "setting": "[2]; read-out: % Inhibition Point 1", "result": 11, "unit": "%"},
      {"measurement": "inhibition at 1 µM", "setting": "[2]; read-out: % Inhibition Point 2", "result": 11, "unit": "%"},
      {"measurement": "inhibition at 1 µM", "setting": "[2]; read-out: % Inhibition mean", "result": 11, "unit": "%"},
      {"measurement": "inhibition at 1 µM", "setting": "[3]; read-out: % Inhibition Point 1", "result": 8, "unit": "%"},
      {"measurement": "inhibition at 1 µM", "setting": "[3]; read-out: % Inhibition Point 2", "result": 8.5, "unit": "%"},
      {"measurement": "inhibition at 1 µM", "setting": "[3]; read-out: % Inhibition mean", "result": 8, "unit": "%"},
      {"measurement": "inhibition at 1 µM", "setting": "[4]; read-out: % Inhibition Point 1", "result": 1.74, "unit": "%"},
      {"measurement": "inhibition at 1 µM", "setting": "[4]; read-out: % Inhibition Point 2", "result": 1.66, "unit": "%"},
      {"measurement": "inhibition at 1 µM", "setting": "[4]; read-out: % Inhibition mean", "result": 1.7, "unit": "%"},
      {"measurement": "inhibition at 1 µM", "setting": "[5]; read-out: % Inhibition Point 1", "result": 5.53, "unit": "%"},
      {"measurement": "inhibition at 1 µM", "setting": "[5]; read-out: % Inhibition Point 2", "result": 8, "unit": "%"},
      {"measurement": "inhibition at 1 µM", "setting": "[5]; read-out: % Inhibition mean", "result": 6.59, "unit": "%"},
      {"measurement": "inhibition at 1 µM", "setting": "[6]; read-out: % Inhibition Point 1", "result": 3, "unit": "%"},
      {"measurement": "inhibition at 1 µM", "setting": "[6]; read-out: % Inhibition Point 2", "result": 1.12, "unit": "%"},
      {"measurement": "inhibition at 1 µM", "setting": "[6]; read-out: % Inhibition mean", "result": 2, "unit": "%"},
      {"measurement": "inhibition at 1 µM", "setting": "[7]; read-out: % Inhibition Point 1", "result": 2.85, "unit": "%"},
      {"measurement": "inhibition at 1 µM", "setting": "[7]; read-out: % Inhibition Point 2", "result": 5, "unit": "%"},
      {"measurement": "inhibition at 1 µM", "setting": "[7]; read-out: % Inhibition mean", "result": 4, "unit": "%"},
      {"measurement": "inhibition at 1 µM", "setting": "[8]; read-out: % Inhibition Point 1", "result": 9, "unit": "%"},
      {"measurement": "inhibition at 1 µM", "setting": "[8]; read-out: % Inhibition Point 2", "result": 8, "unit": "%"},
      {"measurement": "inhibition at 1 µM", "setting": "[8]; read-out: % Inhibition mean", "result": 9, "unit": "%"},
      {"measurement": "inhibition at 1 µM", "setting": "BRK; read-out: % Inhibition Point 1", "result": 55, "unit": "%"},
      {"measurement": "inhibition at 1 µM", "setting": "BRK; read-out: % Inhibition Point 2", "result": 56, "unit": "%"},
      {"measurement": "inhibition at 1 µM", "setting": "BRK; read-out: % Inhibition mean", "result": 56, "unit": "%"}
    ]}
  ]
}
